Measurements as given in patent US10859569B2, “SmFRET with membrane proteins” (Cornell University, priority 2010, dated 2020).
“Also recorded” adds a separate entry of the source.

Legend:
LeuT (H7C/R86C) = experiment: smFRET imaging of surface-immobilized Cy3/Cy5-labeled LeuT (H7C/R86C), intracellular gate; assay type: biochemical, Aquifex aeolicus
Procedure: (§1) The inventors acquired fluorescence data using a prism-based TIR microscope, as described (Munro, J. B. et al., Mol. Cell 25, 505-517 (2007)). All experiments were performed in buffer containing 50 mM Tris/MES (pH 7.5), 10% glycerol, 0.02% w/v DDM, 5 mM 2-mercaptoethanol and 200 mM salt (KCl or NaCl, as specified). The inventors used an oxygen scavenging environment (1 unit per μl glucose oxidase, 8 units per μl catalase, 0.1% v/v glucose) containing 1 mM cyclooctatetraene in all experiments to minimize photobleaching (Dave, R. et al., Biophys. J. 96, 2371-2381 (2009)).
(§2) The inventors incubated microfluidic imaging chambers passivated with a mixture of PEG and biotin-PEG (Blanchard, S. C. et al. Proc. Natl Acad. Sci. USA 101, 12893-12898 (2004)) with 0.8 μM streptavidin (Invitrogen), followed by 20 nM biotin-NTA (Biotium) charged with NiCl2. Cy3/Cy5-labeled His10-LeuT molecules (2 nM) were surface-immobilized to surface-bound Ni2+. The inventors observed no significant surface immobilization, measured as described below, in the absence of biotin-NTA.
Cy3 fluorophores were excited by the evanescent wave generated by TIR of a single-frequency light source (Ventus 532 nm, Laser Quanta). Photons emitted from Cy3 and Cy5 were collected using a 1.2 NA 60× water-immersion objective (Nikon), and optical treatments were used to spatially separate Cy3 and Cy5 frequencies onto a cooled, back-thinned CCD (Cascade 128, Photometrics). The inventors acquired fluorescence data using MetaMorph software (Universal Imaging Corporation). The inventors corrected spectral bleed-through of Cy3 intensity on the acceptor channel by subtracting 7.5% of donor signal from the acceptor. FRET traces were calculated as: FRET=ICy5/(ICy3+ICy5), where ICy3 and ICy5 are the instantaneous Cy3 and Cy5 fluorescence intensities, respectively. Using an established procedure (Roy, et al., Nature Methods 5: 507-516 (2008)), The inventors estimated the ratio of donor and acceptor quantum yields and detection efficiencies (γ) to be close to 1; therefore, no correction was applied.
The inventors analyzed fluorescence and FRET traces using automated analysis, in which traces were selected using algorithms implemented in MATLAB (MathWorks). Algorithms for analyzing smFRET data are found in U.S. 61/437,203, which is herein incorporated by reference in its entirety. Properties were calculated for each trace, and selected for further analysis if they met the following specific criteria: a single photobleaching event, at least 8:1 signal-to-background noise ratio (SNR), <4 donor fluorophore blinking events, a donor-to-acceptor Pearson's correlation coefficient <0.5, and a lifetime of at least 15 frames showing FRET ≥0.15. The inventors detected photobleaching events in each trace as a significant (≥3 standard deviations of background noise) drop in the median-filtered (window size of 9 frames) total fluorescence intensity (ITotal=ICy3+ICy5) without a return to the previous average level. Events in which fluorescence intensity did return were marked as blinking events. Signal-to-noise ratios are calculated as total intensity relative to the standard deviation of background noise: ITotal/stdev(ICy3)+stdev(ICy5). The inventors excluded data points corresponding to donor fluorophore dark states from calculation of the correlation coefficient.
To simplify the presentation of FRET histograms, The inventors removed zero-FRET states following idealization of the data to a two-state model (E=0.1±0.1 and E=0.4±0.1) using a segmental k-means algorithm (Qin, F., Biophys. J. 86, 1488-1501 (2004)). Error bars in FRET histograms represent the standard deviation of 100 bootstrap samples of each set of FRET traces examined.
The inventors estimated kinetic parameters for biotinylated H7C-R86C-LeuT samples by manually selecting traces showing at least one transition between clearly distinct states with anti-correlated changes in donor and acceptor fluorescence intensity in each transition. […]

LeuT [1] = experiment: Scintillation proximity assay (SPA) binding of 3H-alanine to purified LeuT variants; design: species or system Aquifex aeolicus; conditions: 50 mM Na+
Procedure: Scintillation proximity-based binding studies. Binding of ^3H-leucine or ^3H-alanine (146 Ci/mmol and 49.4 Ci/mmol, respectively; Moravek) to purified LeuT-variants was measured with the scintillation proximity assay (SPA) as described (Shi, L. et al., Mol. Cell 30, 667-677 (2008)) with 25 ng of purified protein per assay in buffer composed of 150 mM Tris/Mes, pH 7.5/50 mM NaCl/1 mM TCEP/0.1% n-dodecyl-β-D-maltopyranoside or 50 mM Tris/Mes, pH 7.5/150 mM LiCl/1 mM TCEP/0.1% n-dodecyl-β-D-maltopyranoside. To determine the molar ratio of Leu (or Ala)-to LeuT binding samples were incubated with increasing concentrations of radioligand and measured in the SPA cpm mode of the MircoBeta™ counter (Perkin Elmer). The efficiency of detection was calculated with standard curves of known concentrations of ^3H-Leu or ^3H-Ala. The standard curves were used to transform cpm into the amount of bound substrate (Shi, L. et al., Mol. Cell 30, 667-677 (2008)). The amount of LeuT in the SPA assays was determined (Schaffner, W. et al., Anal. Biochem. 56, 502-514 (1973)). SPA-based binding studies using 2 μM [^22Na]Cl (1017 mCi/mg; Perkin Elmer) were performed in 200 Tris/Mes, pH 7.5/1 mM TCEP/0.1% n-dodecyl-β-D-maltopyranoside in the presence of 0-50 mM NaCl (equimolar replacement of Tris/Mes to obtain a total molarity of 200 mM) (Shi, L. et al., Mol. Cell 30, 667-677 (2008)). […]

LeuT [2] = experiment: 3H-Ala transport in LeuT proteoliposomes; assay type: biochemical, Aquifex aeolicus; conditions: in the presence of Li+ (150 mM)
Procedure: Proteoliposomes were prepared as described (Shi, L. et al., Mol. Cell 30, 667-677 (2008)). The accumulation of ^3H-[…].4 Ci mmol^-1; Moravek) was measured at 23° C. in assay buffer comprised of 150/50 mM Tris/Mes (pH 8.5) and 50 mM NaCl/150 mM LiCl. The reaction was quenched by the addition of ice-cold assay buffer without radiotracer and the proteoliposomes were collected on GF75 glass fiber filters (Advantec) before the determination of the accumulated cpm by liquid scintillation counting.

LeuT (K239C/H480C) = experiment: smFRET imaging of extracellularly labeled LeuT K239C/H480C; assay type: biochemical, Aquifex aeolicus; conditions: 0.5 mM CMI; increased from ~0.49 without CMI
Procedure: as §1
as §2, with “Cy3/Cy5-labeled His10-LeuT molecules (2 nM) were surface-immobilized to surface-bound Ni2+.” left out
(§3) Cy3 fluorophores were excited by the evanescent wave generated by TIR of a single-frequency light source (Ventus 532 nm, Laser Quanta). […] The inventors acquired fluorescence data using MetaMorph software (Universal Imaging Corporation). […] FRET traces were calculated as: FRET=ICy5/(ICy3+ICy5), where ICy3 and ICy5 are the instantaneous Cy3 and Cy5 fluorescence intensities, respectively. […]

LeuT (H7C/T515C) = experiment: smFRET imaging of Cy3/Cy5-labeled LeuT H7C/T515C; assay type: biochemical, Aquifex aeolicus; conditions: saturating Na+ 200 mM
Procedure: as §1
as §2, with “Cy3/Cy5-labeled His10-LeuT molecules (2 nM) were surface-immobilized to surface-bound Ni2+.” left out
as §3

LeuT [3] = conditions: read-out: half-maximum effective concentration (EC50) of Na+ for stimulating binding and transport; cited from earlier work
[4] = biological target: Y335A dopamine transporter (Homo sapiens, UniProt Q01959, Y335A); conditions: Y335A dopamine transporter mutant; cited from earlier work
Chain of Y335A dopamine transporter (Q01959 whole entry Y335A): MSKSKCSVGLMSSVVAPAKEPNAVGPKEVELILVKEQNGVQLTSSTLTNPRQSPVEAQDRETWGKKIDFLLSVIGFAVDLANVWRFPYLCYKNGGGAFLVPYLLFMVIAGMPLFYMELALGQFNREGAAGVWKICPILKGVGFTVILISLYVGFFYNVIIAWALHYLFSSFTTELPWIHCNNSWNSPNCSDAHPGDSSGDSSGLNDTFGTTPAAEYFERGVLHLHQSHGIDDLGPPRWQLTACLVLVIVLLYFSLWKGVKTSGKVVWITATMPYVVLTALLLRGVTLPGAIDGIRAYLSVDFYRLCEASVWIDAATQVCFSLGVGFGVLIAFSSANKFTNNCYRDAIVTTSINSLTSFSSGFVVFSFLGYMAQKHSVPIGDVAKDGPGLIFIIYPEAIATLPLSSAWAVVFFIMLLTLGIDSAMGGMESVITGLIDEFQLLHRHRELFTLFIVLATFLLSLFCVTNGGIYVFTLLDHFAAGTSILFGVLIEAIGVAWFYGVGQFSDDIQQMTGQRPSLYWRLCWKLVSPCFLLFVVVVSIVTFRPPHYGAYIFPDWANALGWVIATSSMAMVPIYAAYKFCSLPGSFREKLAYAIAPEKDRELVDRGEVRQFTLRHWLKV

[5] = 10 mM Na+ and 250 μM Ala, 0.1 mM CMI or 35 mM OG

## C[C@H](N)C(=O)O [Ala, L-alanine]
LeuT (H7C/R86C); 2 mM Na+, increasing Ala concentrations
  effect on FRET distribution: did not shift the FRET distribution toward the closed state
LeuT (H7C/R86C); 2 mM Na+, as much as
  enhancement of transition rates between inward-open and inward-closed states: ~4 fold
LeuT (H7C/R86C); Ala alone, nominal absence of Na+
  effect on lifetimes of inward-open or inward-closed states: not significantly affected
LeuT (H7C/R86C); F253A (S1 site) mutant, 10 mM Na+, 250 μM Ala
  effect on intracellular gating dynamics: failed to increase intracellular gating dynamics
LeuT (H7C/R86C); L400S (S2 site) mutant, 10 mM Na+, 250 μM Ala
  effect on intracellular gating dynamics: no increase in intracellular gating dynamics was observed
LeuT (H7C/R86C); Li+ in place of Na+ (40 mM Li+), 250 μM Ala
  effect on intracellular gating dynamics: failed to accelerate intracellular gating dynamics
LeuT (H7C/R86C); Li+ in place of Na+, 250 μM Ala
  reduction in the rate of gate opening, kclosed-open: ~2 fold
LeuT (H7C/R86C); as much as, conditions of the experiment
  lowering of activation barrier between open and closed states (ΔΔG): ~0.72 kcal/mol
LeuT [1]; F253A mutant
  Ala binding to the S2 site: bound stoichiometrically
LeuT [1]; L400S mutant
  Ala binding to the S1 site: stoichiometric
LeuT [2]
  substrate transport: not observed

## CN(C)CCCN1c2ccccc2CCc2ccc(Cl)cc21 [CMI, clomipramine]
LeuT (H7C/R86C); 0.5 mM CMI, 200 mM KCl, wild-type H7C/R86C
  FRET value of stabilized high-FRET state: ~0.69
LeuT (H7C/R86C); [5]
  effect on intracellular gating dynamics: essentially eliminated the occurrence of intracellular gate opening; also recorded: inhibits these conformational dynamics
LeuT (K239C/H480C)
  FRET between K239C/H480C labels with inhibitor bound: ~0.53

## CC(C)C[C@H](N)C(=O)O [Leu, L-leucine]
LeuT (H7C/R86C); 20 μM leucine at 200 mM Na+
  further changes in FRET upon addition of leucine: did not observe further changes in FRET
LeuT (H7C/R86C); 2 mM Na+, Leu titration
  stabilization of closed intracellular gate state: ~3.5 fold
LeuT (H7C/R86C); 5 mM Na+, 0.2-20 μM leucine
  effect of leucine binding on low-/high-FRET populations: redistributed the two populations in a concentration-dependent fashion in favour of higher-FRET configurations
LeuT (H7C/R86C); LeuT-R5A, 7/86 pair, 200 mM NaCl and 20 μM leucine
  FRET value of high-FRET configurations reached by leucine-dependent isomerization: ~0.77
LeuT (H7C/R86C); as much as, similar to Na+ (50 mM) alone
  raising of energy barrier to motion: ~0.96 kcal/mol

## [Na+] [Na^+]
LeuT (H7C/R86C); Na+ titration
  preferential stabilization of the inward-closed state: ~7 fold
LeuT (H7C/R86C); hidden Markov modeling of Na+ titration, read-out: EC50 for altering distribution of low- and high-FRET LeuT conformations
  EC50: 10.9 mM
LeuT (H7C/R86C); high Na+ concentrations, limited by photobleaching
  dwell time of high FRET state: > 76 s
LeuT (H7C/R86C); saturating Na+ 200 mM, H7C/R86C
  FRET value of stabilized higher-FRET state: ~0.77
LeuT (H7C/T515C)
  FRET value of stabilized higher-FRET state: ~0.73
LeuT [3]
  EC50: ~10 mM

## CCCCCCCCO[C@@H]1O[C@H](CO)[C@@H](O)[C@H](O)[C@H]1O [OG, n-octyl-β-D-glucopyranoside]
LeuT (H7C/R86C); [5]
  effect on intracellular gating dynamics: inhibited intracellular gating dynamics

## [Zn] [zinc]
[4]
  effect on transport: markedly enhances transport
